According to patent US20060058312A1, “Stabilized aqueous preparation for injection” (priority 2004, published 2006):
Read-outs that look alike come from different tables or passages of the source.

Experiments:
[1] = Stability test at 60° C., effect of pH value without ascorbic acid (Example 3), HPLC content; type: physicochemical; details: no addition of ascorbic acid; for remaining calcium levofolinate content compared with the initial value (100): 60° C.
Experimental: (§1) For the aqueous preparations obtained in (1) to (3) above, tests evaluating stability at 60° C./3 weeks were performed. The calcium levofolinate content remaining in the aqueous solution was measured using high performance liquid chromatography under the following conditions (the same were employed in the following experiments) 2 ml each of the test preparations were weighed, and 10 ml of the internal standard solution described below (the same was employed in the following experiments) were added thereto. Subsequently, water was added to adjust the total volume of the solution to 50 ml, thereby to prepare a test solution. Meanwhile, 62.5 mg of calcium levofolinate were dissolved in water so as to prepare a 25 ml solution. Then, to 10 ml of the resultant solution were added 10 ml of the internal standard solution, and the total volume of the solution was adjusted to 50 ml by adding water, thereby to prepare a standard solution. For 20 μl of the standard solution and the test solution, the content of calcium levofolinate was measured by the liquid chromatography method under the following conditions.
(§2) 1) Measurement Conditions • Detector: Ultraviolet absorptiometer (Measurement wavelength: 254 nm) • Column: A stainless tube having an internal diameter of 4.0 mm and a length of 15 cm was filled with 5 μm of octadecylsilylated silica gel for liquid chromatography. • Column temperature: A constant temperature near 45° C. • Mobile phase: The pH value of a mixed test solution containing 0.008 mol/L of disodium hydrogen phosphate solution/methanol/40% aqueous tetrabutylammonium hydroxide solution (385:110:1.3 (volume ratio)) was adjusted to 7.5 by adding phosphoric acid. • Flow rate: The flow rate was regulated so that the retention time of calcium levofolinate became about 10 minutes. • Internal standard solution: A solution prepared by adding water to 0.04 g of methyl parahydroxybenzoate so that the whole amount of solution is 100 ml.
About 80 ml of water for injection were added to a beaker (volume: 200 ml). Then, 0.56 g of sodium chloride and 0.3 g of tromethamine were added to it with bubbling of nitrogen gas, and the components were dissolved with stirring and heating to 45 to 50° C. Subsequently, 1.375 g of calcium levofolinate (1.1 g, in terms of 5-formyl-(6S)-tetrahydrofolic acid) were added, and the components were dissolved with stirring. Thereafter, the pH value of the solution was adjusted to 6.0 by adding 5% hydrochloric acid solution dropwise. A similar procedure to the above was performed to produce solutions, each having a regulated pH value of 7.0, 7.5, 7.9, 8.1, 8.3, 8.7, 9.0, 9.2, and 9.5 (1% aqueous sodium hydroxide solution was used in place of 5% hydrochloric acid solution).
Water for injection was further added to each solution to adjust the total volume of the solution to 100 ml. Subsequently, the bubbling of nitrogen gas was stopped, and each solution was filtered with a filtration filter, thereby to yield a solution for injection. Subsequently, each of nine 5 ml-glass ampules the inside space of which had been substituted by nitrogen gas was filled with 5 ml of the resultant solution for injection, and was sealed by heating.
For each aqueous preparation obtained as above, a test evaluating stability at 60° C. was performed by measuring the remaining levofolinate content by the high performance liquid chromatography method. […] In the cases of pH 6 to 7 and pH 8.7 to pH 9, an extremely excellent stabilizing effect was confirmed.

[2] = type: physicochemical; details: buffer, 13 mg/mL, pH 6.2
Experimental: as §1, §2
About 1100 ml of water for injection were added to a beaker. Then, 8.04 g of sodium chloride, 3.6 g of tromethamine, and 1.2 g of ascorbic acid were added thereto with bubbling of nitrogen gas, and the components were dissolved with stirring. To the resultant solution were added 15.62 g of calcium levofolinate, which was dissolved with stirring. Thereafter, the pH value of the solution was adjusted to 6.2 by adding 5% hydrochloric acid solution dropwise. Water for injection was further added to the solution to adjust the total volume to 1200 ml. Subsequently, the bubbling of nitrogen gas was stopped, and the solution was filtered with a filtration filter, thereby to yield a solution for injection. A 5 ml-syringe made of polypropylene, the inside space of which had been substituted by nitrogen gas, was filled with 5 ml of the resultant solution for injection, followed by steam sterilization under high pressure at 105° C. for 30 minutes. The thus-sterilized syringe was packaged together with a deoxidant, AGELESS ZP-50 (trade name, Mitsubishi Gas Chemical Company, Inc. Japan) by using a plastic film with high air impermeability.
For an aqueous preparation as obtained above, a stability test (60° C./75% RH, and 40° C./75% RH) was performed by measuring the content of calcium levofolinate remaining after storage for a certain period by the high performance liquid chromatography method.

SMILES: Nc1nc(=O)c2c([nH]1)NC[C@H](CNc1ccc(C(=O)N[C@@H](CCC(=O)O)C(=O)O)cc1)N2C=O [calcium levofolinate, (6S)-N-[4-[[(2-amino-5-formyl-1,4,5,6,7,8-hexahydro-4-oxo-6-pteridinyl)methyl]amino]benzoyl]-L-glutamic acid]
- remaining calcium levofolinate content compared with the initial value (100) ([1]; pH value 6.0, 1 month): 88.7
- remaining calcium levofolinate content compared with the initial value (100) ([1]; pH value 6.0, 1 week): 94.7
- remaining calcium levofolinate content compared with the initial value (100) ([1]; pH value 6.0, 2 weeks): 92.5
- remaining calcium levofolinate content compared with the initial value (100) ([1]; pH value 6.0, 3 weeks): 90.1
- calcium levofolinate content, Initial value (100) ([1]; pH value 6.0): 100
- remaining calcium levofolinate content compared with the initial value (100) ([1]; pH value 7.0, 1 month): 88.6
- remaining calcium levofolinate content compared with the initial value (100) ([1]; pH value 7.0, 1 week): 94.8
- remaining calcium levofolinate content compared with the initial value (100) ([1]; pH value 7.0, 2 weeks): 92.2
- remaining calcium levofolinate content compared with the initial value (100) ([1]; pH value 7.0, 3 weeks): 90.1
- calcium levofolinate content, Initial value (100) ([1]; pH value 7.0): 100
- remaining calcium levofolinate content compared with the initial value (100) ([1]; pH value 7.5, 1 month): 84.2
- remaining calcium levofolinate content compared with the initial value (100) ([1]; pH value 7.5, 1 week): 93.4
- remaining calcium levofolinate content compared with the initial value (100) ([1]; pH value 7.5, 2 weeks): 89.0
- remaining calcium levofolinate content compared with the initial value (100) ([1]; pH value 7.5, 3 weeks): 86.8
- calcium levofolinate content, Initial value (100) ([1]; pH value 7.5): 100
- remaining calcium levofolinate content compared with the initial value (100) ([1]; pH value 7.9, 1 month): 81.9
- remaining calcium levofolinate content compared with the initial value (100) ([1]; pH value 7.9, 1 week): 95.1
- remaining calcium levofolinate content compared with the initial value (100) ([1]; pH value 7.9, 2 weeks): 89.7
- remaining calcium levofolinate content compared with the initial value (100) ([1]; pH value 7.9, 3 weeks): 86.3
- calcium levofolinate content, Initial value (100) ([1]; pH value 7.9): 100
- remaining calcium levofolinate content compared with the initial value (100) ([1]; pH value 8.1, 1 week): 95.4
- remaining calcium levofolinate content compared with the initial value (100) ([1]; pH value 8.1, 2 weeks): 91.5
- remaining calcium levofolinate content compared with the initial value (100) ([1]; pH value 8.1, 3 weeks): 85.6
- calcium levofolinate content, Initial value (100) ([1]; pH value 8.1): 100
- remaining calcium levofolinate content compared with the initial value (100) ([1]; pH value 8.3, 1 week): 93.6
- remaining calcium levofolinate content compared with the initial value (100) ([1]; pH value 8.3, 2 weeks): 91.1
- remaining calcium levofolinate content compared with the initial value (100) ([1]; pH value 8.3, 3 weeks): 85.5
- calcium levofolinate content, Initial value (100) ([1]; pH value 8.3): 100
- remaining calcium levofolinate content compared with the initial value (100) ([1]; pH value 8.7, 1 week): 94.7
- remaining calcium levofolinate content compared with the initial value (100) ([1]; pH value 8.7, 2 weeks): 93.6
- remaining calcium levofolinate content compared with the initial value (100) ([1]; pH value 8.7, 3 weeks): 88.3
- calcium levofolinate content, Initial value (100) ([1]; pH value 8.7): 100
- remaining calcium levofolinate content compared with the initial value (100) ([1]; pH value 9.0, 1 week): 96.1
- remaining calcium levofolinate content compared with the initial value (100) ([1]; pH value 9.0, 2 weeks): 93.3
- remaining calcium levofolinate content compared with the initial value (100) ([1]; pH value 9.0, 3 weeks): 88.6
- calcium levofolinate content, Initial value (100) ([1]; pH value 9.0): 100
- remaining calcium levofolinate content compared with the initial value (100) ([1]; pH value 9.2, 1 week): 94.4
- remaining calcium levofolinate content compared with the initial value (100) ([1]; pH value 9.2, 2 weeks): 93.4
- remaining calcium levofolinate content compared with the initial value (100) ([1]; pH value 9.2, 3 weeks): 87.7
- calcium levofolinate content, Initial value (100) ([1]; pH value 9.2): 100
- remaining calcium levofolinate content compared with the initial value (100) ([1]; pH value 9.5, 1 week): 93.7
- remaining calcium levofolinate content compared with the initial value (100) ([1]; pH value 9.5, 2 weeks): 92.4
- remaining calcium levofolinate content compared with the initial value (100) ([1]; pH value 9.5, 3 weeks): 85.3
- calcium levofolinate content, Initial value (100) ([1]; pH value 9.5): 100
- remaining ratio (%) of calcium levofolinate ([2]; 0 months): 100%
- remaining ratio (%) of calcium levofolinate ([2]; 0 weeks): 100%
- remaining ratio (%) of calcium levofolinate ([2]; 1 month): 99.8%
- remaining ratio (%) of calcium levofolinate ([2]; 2 months): 98.8%
- remaining ratio (%) of calcium levofolinate ([2]; 4 months): 96.6%
- remaining ratio (%) of calcium levofolinate ([2]; 6 months): 91.8%
- remaining ratio (%) of calcium levofolinate ([2]; 168 h): 96.6%
- remaining ratio (%) of calcium levofolinate ([2]; 336 h): 96.2%
- remaining ratio (%) of calcium levofolinate ([2]; 504 h): 95.3%
- remaining ratio (%) of calcium levofolinate ([2]; 672 h): 94.4%
